In paper PMC8563752, “An oxidative metabolic pathway of 4-deoxy-L-erythro-5-hexoseulose uronic acid (DEHU) from alginate in an alginate-assimilating bacterium” (Communications Biology, 2021):
Each block holds one compound with its values, some of them ahead of it.

How the values were obtained:
recFlDeg [1] = target: T1, recFlDeg (Flavobacterium sp. UMI-01, UniProt A0A6S6ASF6); experiment: NADH formation at […] nm; format: biochemical; conditions: […] alpha-KGSA, […] potassium phosphate pH […] KCl, […] MgCl2, […] °C
T1 construct: full length, His-tag, E. coli BL21(DE3); calculated mass 57,142 Da; Glu251 and Cys288 conserved
T1 sequence (A0A6S6ASF6 1-515): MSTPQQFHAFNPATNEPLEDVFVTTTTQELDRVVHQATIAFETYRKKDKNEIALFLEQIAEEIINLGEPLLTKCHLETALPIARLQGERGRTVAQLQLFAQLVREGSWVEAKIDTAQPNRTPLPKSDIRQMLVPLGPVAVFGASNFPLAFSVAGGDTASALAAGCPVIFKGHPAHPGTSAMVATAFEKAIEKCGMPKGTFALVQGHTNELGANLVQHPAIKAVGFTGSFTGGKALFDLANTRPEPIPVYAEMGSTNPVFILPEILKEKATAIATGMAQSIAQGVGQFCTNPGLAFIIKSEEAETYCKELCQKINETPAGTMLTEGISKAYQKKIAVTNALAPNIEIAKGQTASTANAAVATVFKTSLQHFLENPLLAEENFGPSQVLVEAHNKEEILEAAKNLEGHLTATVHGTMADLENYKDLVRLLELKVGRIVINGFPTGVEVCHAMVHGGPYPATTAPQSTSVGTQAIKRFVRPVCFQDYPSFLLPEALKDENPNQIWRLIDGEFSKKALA

recFlRed [2] = tested on: T2, recFlRed; experiment: NADH formation by absorbance at […] nm, Michaelis-Menten fit; format: biochemical, Flavobacterium sp. UMI-01; conditions: oxidase direction; 5 mM DEHU, 0.15 M KCl, 10 mM sodium phosphate pH 7.4, 20 °C
T2 construct: gene FlRed; native 27 kDa on SDS-PAGE, about 102 kDa on gel filtration, tetramer

recFlRed [3] = tested on: T2, recFlRed; experiment: NADH consumption by absorbance at […] nm, Michaelis-Menten fit; format: biochemical, Flavobacterium sp. UMI-01; conditions: reductase direction; 0.2 mM NADH, 0.15 M KCl, 10 mM sodium phosphate pH 7.4, 20 °C
recFlRed [4] = tested on: T2, recFlRed; experiment: coenzyme consumption by absorbance at […] nm, Michaelis-Menten fit; format: biochemical, Flavobacterium sp. UMI-01; conditions: reductase direction; 5 mM DEHU, 0.15 M KCl, 10 mM sodium phosphate pH 7.4, 20 °C
recFlDet = target: T3, recFlDet (Flavobacterium sp. UMI-01, UniProt A0A6S6B272); experiment: TBA method (decrease at […] nm), TLC, ESI-MS of product; format: biochemical; conditions: […] potassium phosphate pH […] KCl, […] MgCl2, […] °C
T3 construct: full length 237 residues (25,697 Da), C-terminal His-tag (27,394 Da), E. coli BL21(DE3); native tetra- or pentamer; N-terminus […]
T3 sequence (A0A6S6B272 1-237): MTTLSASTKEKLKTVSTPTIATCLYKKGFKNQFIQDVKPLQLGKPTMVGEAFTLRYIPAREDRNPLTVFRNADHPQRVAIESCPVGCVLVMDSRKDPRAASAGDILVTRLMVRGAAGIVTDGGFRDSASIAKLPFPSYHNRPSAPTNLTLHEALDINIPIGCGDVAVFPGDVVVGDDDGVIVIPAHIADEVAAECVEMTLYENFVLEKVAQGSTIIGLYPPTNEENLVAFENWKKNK

recFlDeg [5] = target: T1, recFlDeg; experiment: NADH formation at […] nm; TLC, ESI-MS and NMR of product; format: biochemical; conditions: NAD+, […] potassium phosphate pH […] KCl, […] MgCl2, […] °C
recFlRed [6] = tested on: T2, recFlRed; experiment: NADPH formation by absorbance at […] nm, Michaelis-Menten fit; format: biochemical, Flavobacterium sp. UMI-01; conditions: oxidase direction; 5 mM DEHU, 0.15 M KCl, 10 mM sodium phosphate pH 7.4, 20 °C

Structure (SMILES): O=C[C@@H](O)[C@@H](O)CC(=O)C(=O)O [DEHU]
Km (recFlRed [3]): 2600 ± 100 µM

Structure (SMILES): O=C(O)C(=O)C[C@H](O)[C@H](O)C(=O)O [KDGR]
TBA method (decrease at 548 nm), TLC, ESI-MS of product (recFlDet): KDGR was determined to be the sole α-keto acid recognized by recFlDet

Structure (SMILES): NC(=O)C1=CN([C@@H]2O[C@H](COP(=O)(O)OP(=O)(O)OC[C@H]3O[C@@H](n4cnc5c(N)ncnc54)[C@H](O)[C@@H]3O)[C@@H](O)[C@H]2O)C=CC1 [NADH]
Km (recFlRed [4]): 37 ± 2 µM

Structure (SMILES): O=CCCC(=O)C(=O)O [α-KGSA]
NADH formation at 340 nm; TLC, ESI-MS and NMR of product (recFlDeg [5]): FlDeg is the enzyme catalyzing the oxidation of the aldehyde group of α-KGSA

Now from value to compound:

NADH formation at 340 nm (recFlDeg [1]): recFlDeg preferred NAD^+ to NADP^+
Km (recFlRed [2]): 98 ± 10 µM
Structure (SMILES): NC(=O)c1ccc[n+]([C@@H]2O[C@H](COP(=O)(O)OP(=O)(O)OC[C@H]3O[C@@H](n4cnc5c(N)ncnc54)[C@H](O)[C@@H]3O)[C@@H](O)[C@H]2O)c1 [NAD^+]

Km (recFlRed [4]): 980 ± 100 µM
Structure (SMILES): NC(=O)C1=CN([C@@H]2O[C@H](COP(=O)(O)OP(=O)(O)OC[C@H]3O[C@@H](n4cnc5c(N)ncnc54)[C@H](OP(=O)(O)O)[C@@H]3O)[C@@H](O)[C@H]2O)C=CC1 [NADPH]

Km (recFlRed [6]): 1400 ± 200 µM
Structure (SMILES): NC(=O)c1ccc[n+]([C@@H]2O[C@H](COP(=O)(O)OP(=O)(O)OC[C@H]3O[C@@H](n4cnc5c(N)ncnc54)[C@H](OP(=O)(O)O)[C@@H]3O)[C@@H](O)[C@H]2O)c1 [NADP^+]
